Test [1] relates to caspase 2. As to the kind of experiment: Caspase 2 activity in cultured tumor cells. The format is cell-based. The following applies: co-treatment of stausporine (0.5 μM) and Compound D.
Test [2] deals with TCF/β-catenin reporter gene transcription in PC-12 PS-1/L286V cells. As to the kind of experiment: TOPFLASH luciferase assay in differentiated PC-12 cells. The following applies: PS-1/L286V mutant PC-12 cells; 10 μM plus NGF. Format: cell-based, Rat. The protocol:
(§1) Differentiated PC-12/L286V cells were treated with increasing concentrations of this compound for 4 hours. Transfection was then initiated after this treatment period.
Transfection. PC-12 cells were cultured and differentiated on 60-mm dishes. At the end of the 10-day differentiation period, cells were transfected with 2 μg reporter constructs, TOPFLASH and FOPFLASH, per 60-mm dish. Transfections were performed using Superfect (Qiagen) according to manufacturer's instructions.
Luciferase Assays. Cells were lysed, 6 hours after transfections, in 100 μl of Cell Culture Lysis Reagent (Promega, Madison, Wis.), and scraped into microcentrifuge tubes. Tubes were then centrifuged briefly (about 10 seconds) at 12000 rpm to pellet cell debris. Luciferase activity was measured on 20 μl of cell lysate and 100 μl substrate from the Luciferase Assay System (Promega). Luciferase activity was measure using Packard LumiCount. (Hewlett Packard). Quantitation of luciferase was performed in triplicates, and repeated in at least three independent experiments.

For test [3], the system named is GAP-43 in PC-12 PS-1/L286V cells. As to the kind of experiment: GAP-43 immunofluorescence. The conditions noted are these: PS-1/L286V mutant PC-12 cells; 10 μM. Format: cell-based, Rat. The protocol:
(§2) Immunofluorescence. Cells were plated at a density of 10,000 cells/cm^2 on sterile coated 22×22 mm coverslips in a 6-well culture plate. Differentiation was initiated, as previously described, for 10 days. The differentiated cells were then fixed in methanol for 15 minutes at −20° C. This is followed by a 15 minutes incubation with PBS+0.1% Triton X-100. The coverslips were incubated with antibodies raised against Ephrin B2 Receptor (Santa Cruz Biotechnology) and Gap-43 (Novus Biologicals) for 40 minutes at 37° C. After a series of washes with PBS-Triton X-100, secondary antibody conjugated to FITC (Jackson ImmunoResearch, Westgrove, Pa.) was applied. All slides images were acquired using a Nikon PCM2000 Laser Scanning Confocal Microscope mounted on a Nikon Eclipse E600 upright microscope (Nikon, Melville, N.Y.).

Test [4] deals with HCT116 cells. As to the kind of experiment: Flow cytometric analysis (FACS) of cell cycle. Format: cell-based. The conditions noted are these: 25 μM, 24 hours. The protocol: (§3) For FACS analysis, approx. 5×10^6 cells from Compound D-treated or vehicle-treated were fixed with 70% chilled ethanol and stored at −20° C. for at least 30 minutes. The cells were washed once with 1×PBS and incubated with propidium iodine (PI) solution (85 μg/ml propidium iodine, 0.1% Nonidet P-40, 10 mg/ml RNAse) for 30 minutes at room temperature. 10,000 stained cells for each sample were acquired using Beckman Coulter EPICS XL-MCL Flow Cytometry and the percentage of cells in different phase of the cell cycle was determined by Expo32 ADC software (Coulter Corporation, Miami, Fla., 33196).
(§4) It has been shown that inhibition of the expression of the cyclin D1 gene causes arrest at the G1/S-phase of the cell cycle (Shintani et al., “Infrequent alternations of RB pathway (Rb-p16INK4A-cyclin D1) in adenoid cystic carcinoma of salivary glands,” Anticancer Res. 20:2169-75 (2000)). […] The cells were subsequently stained with propidium iodide (PI) and analyzed for DNA content by FACS cytofluorometry.
(In flow cytometry, cells or beads pass a laser one at a time.)

Test [5] deals with SW480 cells. Nature of the test: Flow cytometric analysis (FACS) of cell cycle. The conditions noted are these: 25 μM, 24 hours. Format: cell-based. The protocol: as §3, §4
In test [6] the test system is survivin promoter occupancy by CBP, β-catenin, Tcf4 and acetylated histone. As to the kind of experiment: ChIP assay on SW480 cells. The format is cell-based. The conditions noted are these: 25 μM, 18 hours.
The test system of test [7] is survivin promoter in wild type, CBP+/−, p300+/− 3T3 cells. As to the kind of experiment: Survivin promoter luciferase reporter in 3T3 cells. The format is cell-based. The text has this:
A plasmid containing luciferase under the control of survivin promoter was constructed and transfected into wild type, CBP+/−, or p300+/−3T3 cells.
In general terms: Reporter assays use an easily measured gene product as a stand-in for the process of interest.

In test [8] the target is β-catenin/CBP interaction (Homo sapiens, UniProt Q92793). The conditions noted are these: Emami et al., Cancer Cell, in press; cited from earlier work.
In test [9] the test system is Ephrin B2 (EphB2) receptor in PC-12 PS-1/L286V cells. Nature of the test: EphB2 receptor expression (immunofluorescence and RT-PCR). Format: cell-based, Rat. The conditions noted are these: PS-1/L286V mutant PC-12 cells; 10 μM. The protocol:
as §2
RT-PCR. To analyze the mRNA levels for Ephrin B2 (EphB2) receptor, total RNA was isolated using Trizol (Invitrogen-GIBCO-BRL, Baltimore, Md.) from differentiated cells. 2 μg RNA was reverse transcribed in a total volume of 20 μl with random hexamer (50 ng), and using the Superscript II reverse transcription system (Invitrogen-GIBCO-BRL), according to manufacturer's guidelines. PCR was carried out in a 50 μl volume containing 5 μl cDNA, 100 pmol primers, 100 μM dNTPs, 1×Taq buffer and 1.5 mM MgCl2. […]

The test system of test [10] is cultured tumor cells. As to the kind of experiment: Cell death of cultured tumor cells. Format: cell-based. The conditions noted are these: 5.0 μM.
Test [11] deals with cultured tumor cells. As to the kind of experiment: FACS analysis, cells in G0. Format: cell-based. The following applies: 5 μM.
The subject of test [12] is survivin in SW480 cells. Nature of the test: Survivin immunofluorescence microscopy. Format: cell-based.
For test [13], the system named is PC-12 cells overexpressing mutant PS-1/L286V. As to the kind of experiment: Neuronal differentiation and quantitation of neurite outgrowth. The format is cell-based, Rat. The following applies: PS-1/L286V mutant PC-12 cells. The protocol:
Cell Differentiation. Cell culture dishes were pre-coated overnight with 0.25 mg/ml collagen (Cohesion, Calif.), 10 μg/ml Poly-L-Lysine (Sigma-Aldrich, St. Louis, Mo.) and 12 μg/ml Polyethyleneimine (ICN, La Mesa, Calif.). Cells were cultured on coated dishes at 15,000 cells/cm^2, and differentiated into a neuron-like phenotype by incubation in medium with reduced serum (1% fetal bovine serum), containing 50 ng/ml nerve growth factor (NGF) (Sigma-Aldrich) for 10 days. NGF-containing medium was changed every 2-3 days.
as §1
Quantitation of Neurite Outgrowth. Cell counts were taken from six randomly chosen microscopic fields (10×). […] The number of cells with such outgrowths was then expressed as a percentage of the total number of cells. Values obtained were from duplicates of three independent experiments.

“Also recorded” adds a separate entry of the source.

Sequence of β-catenin/CBP interaction (Q92793 whole entry): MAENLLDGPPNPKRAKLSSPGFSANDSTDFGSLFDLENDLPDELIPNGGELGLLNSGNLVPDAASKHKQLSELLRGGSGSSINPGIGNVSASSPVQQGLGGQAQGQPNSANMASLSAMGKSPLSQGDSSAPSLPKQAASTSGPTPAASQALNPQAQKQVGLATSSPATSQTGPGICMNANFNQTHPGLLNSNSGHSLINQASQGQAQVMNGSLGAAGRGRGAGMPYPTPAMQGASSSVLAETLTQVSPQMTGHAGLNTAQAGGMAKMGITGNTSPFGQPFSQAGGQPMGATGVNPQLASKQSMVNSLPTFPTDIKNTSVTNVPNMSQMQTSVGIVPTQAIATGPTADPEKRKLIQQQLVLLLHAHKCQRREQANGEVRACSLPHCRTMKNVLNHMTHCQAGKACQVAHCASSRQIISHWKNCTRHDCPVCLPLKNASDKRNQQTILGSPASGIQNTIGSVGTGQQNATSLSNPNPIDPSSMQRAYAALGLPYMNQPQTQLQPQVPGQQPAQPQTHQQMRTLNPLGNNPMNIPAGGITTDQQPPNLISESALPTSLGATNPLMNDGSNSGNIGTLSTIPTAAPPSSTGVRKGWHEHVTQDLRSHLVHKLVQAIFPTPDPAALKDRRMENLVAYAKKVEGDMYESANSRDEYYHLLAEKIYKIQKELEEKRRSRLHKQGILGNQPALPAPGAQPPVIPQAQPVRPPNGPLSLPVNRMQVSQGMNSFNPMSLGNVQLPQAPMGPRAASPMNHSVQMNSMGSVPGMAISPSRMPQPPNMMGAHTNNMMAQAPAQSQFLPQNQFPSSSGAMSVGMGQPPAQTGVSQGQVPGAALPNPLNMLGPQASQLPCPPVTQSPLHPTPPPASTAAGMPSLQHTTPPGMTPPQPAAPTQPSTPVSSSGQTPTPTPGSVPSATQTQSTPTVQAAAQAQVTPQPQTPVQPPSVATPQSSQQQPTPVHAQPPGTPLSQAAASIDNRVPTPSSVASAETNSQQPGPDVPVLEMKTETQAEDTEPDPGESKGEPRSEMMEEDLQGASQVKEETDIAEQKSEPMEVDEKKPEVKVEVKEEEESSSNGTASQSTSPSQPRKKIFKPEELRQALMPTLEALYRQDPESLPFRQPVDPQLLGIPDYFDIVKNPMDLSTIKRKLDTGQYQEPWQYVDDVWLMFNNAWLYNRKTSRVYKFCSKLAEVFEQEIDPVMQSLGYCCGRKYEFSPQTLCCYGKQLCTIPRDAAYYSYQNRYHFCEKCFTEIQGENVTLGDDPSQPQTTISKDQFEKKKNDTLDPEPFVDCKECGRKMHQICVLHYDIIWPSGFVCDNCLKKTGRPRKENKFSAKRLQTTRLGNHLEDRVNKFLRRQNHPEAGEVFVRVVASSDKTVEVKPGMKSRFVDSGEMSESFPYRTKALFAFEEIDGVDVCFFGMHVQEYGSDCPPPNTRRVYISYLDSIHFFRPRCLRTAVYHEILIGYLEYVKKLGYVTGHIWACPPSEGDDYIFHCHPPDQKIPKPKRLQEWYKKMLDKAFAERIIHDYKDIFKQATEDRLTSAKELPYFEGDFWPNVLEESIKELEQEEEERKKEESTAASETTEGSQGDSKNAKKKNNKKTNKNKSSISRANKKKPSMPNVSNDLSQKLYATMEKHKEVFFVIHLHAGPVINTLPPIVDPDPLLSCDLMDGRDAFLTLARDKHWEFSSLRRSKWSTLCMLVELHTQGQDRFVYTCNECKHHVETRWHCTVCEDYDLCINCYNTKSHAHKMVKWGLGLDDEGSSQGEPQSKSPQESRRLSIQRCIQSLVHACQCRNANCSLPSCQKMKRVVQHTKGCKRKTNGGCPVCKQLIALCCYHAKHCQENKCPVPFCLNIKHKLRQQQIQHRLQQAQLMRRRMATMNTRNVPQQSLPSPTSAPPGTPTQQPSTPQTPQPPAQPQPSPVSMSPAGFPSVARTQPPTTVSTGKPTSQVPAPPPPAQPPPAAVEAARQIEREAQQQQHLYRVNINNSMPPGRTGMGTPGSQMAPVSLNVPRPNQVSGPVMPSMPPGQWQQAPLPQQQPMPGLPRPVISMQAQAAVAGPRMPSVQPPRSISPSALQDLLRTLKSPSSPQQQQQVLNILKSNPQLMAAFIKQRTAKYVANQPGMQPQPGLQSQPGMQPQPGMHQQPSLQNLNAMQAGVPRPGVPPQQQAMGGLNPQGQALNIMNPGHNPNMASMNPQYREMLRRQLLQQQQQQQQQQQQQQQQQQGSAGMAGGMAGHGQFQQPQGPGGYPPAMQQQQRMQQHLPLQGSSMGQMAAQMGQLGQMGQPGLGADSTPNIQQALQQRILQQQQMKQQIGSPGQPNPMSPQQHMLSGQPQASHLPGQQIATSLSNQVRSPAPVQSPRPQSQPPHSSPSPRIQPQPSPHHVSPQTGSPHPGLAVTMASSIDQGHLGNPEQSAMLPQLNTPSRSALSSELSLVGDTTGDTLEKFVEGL

Take `O=C1[C@H](Cc2ccc(O)cc2)N2C(=O)CCN(C(=O)NCc3ccccc3)[C@H]2CN1Cc1cccc2ccccc12` [Compound D]: the “caspase 2 activity, co-treatment” value in test [1] is “not a synergic stimuation of the caspase 2 activity”. In addition, the “TCF/β-catenin reporter gene transcription” value in test [2] was “decreased TCF/β-catenin reporter gene transcription”. The GAP-43 staining result in [3] is listed as “significantly elevated”. Moreover, in test [4], the “cell cycle distribution (PI, FACS)” value is on record as “increased accumulation at G1/S-phase of the cell cycle; also recorded: arrests cells in G1”. The “cell cycle distribution (PI, FACS)” value in test [5] was “increased accumulation at G1/S-phase of the cell cycle; also recorded: arrests cells in G1”. The “association of CBP, β-catenin, Tcf4 and acetylated histone with the survivin promoter (ChIP)” value in test [6] is reported as “decreases the association of all these proteins with the survivin promoter; also recorded: decreases the association of various proteins with the survivin promoter”. The “survivin gene expression (luciferase under survivin promoter)” value in test [7] is on record as “reduces expression of the survivin gene; also recorded: knout-down”. Further, in [7] (with Wnt1), the “Wnt1 stimulation of survivin gene expression” value is recorded as “decreases the stimulation of the survivin gene expression by Wnt1”. Besides, the β-catenin/CBP interaction result in [8] is “selectively blocks the β-catenin/CBP interaction”. Also, in [9], the “EphB2 message (RT-PCR)” value is reported as “increased EphB2 message; also recorded: upregulates EphB2 message” and the “EphB2 receptor expression (immunofluorescence)” value is “increased EphB2 receptor expression”. In addition, in test [10], the cell death entry is reported as “promotes cell death”. In test [11], the “number of cells in G0 (FACS)” value is reported as “increases the number of cells in G0”. Further, the “survivin protein (immunofluorescence microscopy)” value in test [12] is recorded as “little or no survivin protein was detected”. The “percentage of cells bearing neurites greater than twice the length of the cell body” value in test [13] (10 μM) is listed as “substantially increased the percentage of cells bearing neurites; also recorded: significantly increased”. Also, the “neurite outgrowth and differentiation” value in test [13] (10 μM plus NGF, 10 days) is “essentially normal neurite outgrowth and differentiation; also recorded: phenotypically corrects deficient neuronal differentiation”.
